According to BindingDB's records for patent US20240351997 (Shanghai Qilu Pharmaceutical Research and Development Centre, 2024):

What follows are compounds tested against T1, Protein mono-ADP-ribosyltransferase TIPARP (Homo sapiens, UniProt Q7Z3E1) (assay: In Vitro Enzymology Experiment of PARP2, 3, 5A, 5B, 7, 12, and 15).
T1 sequence (Q7Z3E1 whole entry): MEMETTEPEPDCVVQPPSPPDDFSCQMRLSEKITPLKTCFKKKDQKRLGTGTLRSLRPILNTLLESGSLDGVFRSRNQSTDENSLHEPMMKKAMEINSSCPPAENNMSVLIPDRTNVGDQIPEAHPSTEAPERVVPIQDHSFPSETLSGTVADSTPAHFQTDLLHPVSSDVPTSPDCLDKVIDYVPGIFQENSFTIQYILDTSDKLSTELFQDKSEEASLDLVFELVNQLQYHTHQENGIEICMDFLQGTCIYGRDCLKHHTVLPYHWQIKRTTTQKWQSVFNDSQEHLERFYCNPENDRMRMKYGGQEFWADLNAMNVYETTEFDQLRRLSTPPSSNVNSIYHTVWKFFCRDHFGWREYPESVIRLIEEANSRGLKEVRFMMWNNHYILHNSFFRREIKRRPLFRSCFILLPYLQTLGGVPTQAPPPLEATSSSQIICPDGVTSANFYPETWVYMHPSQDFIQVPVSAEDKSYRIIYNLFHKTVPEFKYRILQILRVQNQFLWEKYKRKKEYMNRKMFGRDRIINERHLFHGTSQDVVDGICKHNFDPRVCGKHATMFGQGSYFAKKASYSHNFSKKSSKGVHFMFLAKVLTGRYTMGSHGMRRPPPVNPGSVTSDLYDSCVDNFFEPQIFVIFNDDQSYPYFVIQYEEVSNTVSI
Description: 1. Preparation of 384-well histone-coated plate: 25 μL of histone solution was added to each well, and the plate was incubated overnight at 4° C.2. Preparation of PBST buffer, blocking buffer, and assay buffer3. The 384-well histone-coated plate was washed three times with PBST buffer. The plate was blocked by 50 μL of blocking buffer for 1 hour at room temperature. The plate was then washed three times with PBST buffer.4. Compound preparation:2000× compound was prepared in a 96-well source plate. 50 nL of the compound was transferred from the source plate to a 96-well intermediate plate, and 39.95 μL of assay buffer was added to each well. The plate was shaken well and centrifuged at 1000 rpm for 1 minute.5 μL of compound DMSO solution was transferred to each well.5. […] Detection:25 μL of Stre-HRP was added.The plate was incubated at room temperature for 1 hour and washed three times with PBS buffer.25 μL of QuantaRed Enhancer mix was added. The plate was incubated for 10 minutes.2.5 μL of QuantaRed Stop Solution was added to terminate the peroxidase reaction, and the plate was shaken for 10 to 30 seconds.7. […] Data processingUsing equation (1) to fit the data in Excel to obtain inhibition valuesinh%=(Max-Signal)/(Max-Min)*100Equation(1)Using equation (2) to fit the data in XL-Fit to obtain IC50 valuesY=Bottom+(Top-Bottom)/(1+(IC5 0/X)*HillSlopeEquation(2)Y is the percentage of inhibition, and X is the compound concentration.
`Nc1cc(C(F)(F)F)cnc1N1CCN(C(=O)OCCc2c[nH]c(=O)c(C(F)(F)F)c2)CC1` [US20240351997, Example 131] was tested, and the IC50 was 1.3 nM.
In the case of `O=C(Oc1cccc(-c2c[nH]c(=O)c(C(F)(F)F)c2)c1)N1CCN(c2ncc(C(F)(F)F)cn2)[C@@H](CO)C1` [US20240351997, Example 141], the IC50 is reported as 0.85 nM.
Compound `O=C(Oc1cccc(-c2c[nH]c(=O)c(C(F)(F)F)c2)c1)N1CCN(c2ncc(C(F)(F)F)cn2)[C@H](CO)C1` [US20240351997, Example 142] has an IC50 of 0.74 nM.
With `O=C(Oc1cccc(-c2c[nH]c(=O)c(C(F)(F)F)c2)c1)N1CCN(c2ncc(C(F)(F)F)cn2)[C@@H](CO)C1` [US20240351997, Example 143] the IC50 was 0.61 nM.
`Cc1cnc(N2C[C@@H](C)N(C(=O)OCCc3c[nH]c(=O)c(C(F)(F)F)c3)C[C@H]2C)nc1` [US20240351997, Example 167] was tested, and the IC50 was 1.5 nM.
`C[C@@H]1CN(c2ncc(C3CC3)cn2)[C@H](C)CN1C(=O)OCCc1c[nH]c(=O)c(C(F)(F)F)c1` [US20240351997, Example 180] was tested, and the IC50 was 1 nM.
